Values quoted from earlier work as cited in PubChem BioAssay AID1259409 (Chemical Carcinogenesis Research Information System (CCRIS), 2018).

Tested on: rodent chemically induced tumor inhibition, incidence and multiplicity
Assay: CCRIS tumor inhibitor studies

Q: With `Oc1cccc(O)c1` as the molecule, how does the “tumour outcome (control, treated, inhibition, significance)” value (Carcinogen: 3,2'-DIMETHYL-4-AMINOBIPHENYL, 13394-86-0, Dose [Inhibitor]: 0, 0.8% IN BASAL DIET BEGINNING POST CARCINOGEN TREATMENT AND CONTINUING FOR 40 WK (STUDY DURATION: 60 WK), Route [Inhibitor]: ORAL, Species: RAT, Strain/Sex: F344/MALE, Target Tissue: Type of Lesion: LARGE INTESTINE: ADENOMA AND ADENOCARCINOMA, Dose [Carcinogen]: 50 MG/KG 1/2 WK FOR 20 WK TO RATS MAINTAINED ON ETHINYL ESTRADIOL CONTAINING DIET (0.75 PPM) FOR 1 WK CYCLED WITH ETHINY, Promoter: ETHINYL ESTRADIOL, 57-63-6) read?
A: 3/10 (30%), 6/10 (60%), -100%, not significant

Q: And the “tumour outcome (control, treated, inhibition, significance)” value (Carcinogen: 3,2'-DIMETHYL-4-AMINOBIPHENYL, 13394-86-0, Dose [Inhibitor]: 0, 0.8% IN BASAL DIET BEGINNING POST CARCINOGEN TREATMENT AND CONTINUING FOR 40 WK (STUDY DURATION: 60 WK), Route [Inhibitor]: ORAL, Species: RAT, Strain/Sex: F344/MALE, Target Tissue: Type of Lesion: PANCREAS: ACINAR CELL NODULE, Dose [Carcinogen]: 50 MG/KG 1/2 WK FOR 20 WK TO RATS MAINTAINED ON ETHINYL ESTRADIOL CONTAINING DIET (0.75 PPM) FOR 1 WK CYCLED WITH ETHINY, Promoter: ETHINYL ESTRADIOL, 57-63-6)?
A: 4/10 (40%), 3/10 (30%), 25%, not significant

Q: What about the “tumour outcome (control, treated, inhibition, significance)” value (Carcinogen: 3,2'-DIMETHYL-4-AMINOBIPHENYL, 13394-86-0, Dose [Inhibitor]: 0, 0.8% IN BASAL DIET BEGINNING POST CARCINOGEN TREATMENT AND CONTINUING FOR 40 WK (STUDY DURATION: 60 WK), Route [Inhibitor]: ORAL, Species: RAT, Strain/Sex: F344/MALE, Target Tissue: Type of Lesion: PREPUTIAL GLAND: ADENOMA AND CARCINOMA, Dose [Carcinogen]: 50 MG/KG 1/2 WK FOR 20 WK TO RATS MAINTAINED ON ETHINYL ESTRADIOL CONTAINING DIET (0.75 PPM) FOR 1 WK CYCLED WITH ETHINY, Promoter: ETHINYL ESTRADIOL, 57-63-6) of the same molecule?
A: 5/10 (50%), 3/10 (30%), 40%, not significant

Q: What about the “tumour outcome (control, treated, inhibition, significance)” value (Carcinogen: 3,2'-DIMETHYL-4-AMINOBIPHENYL, 13394-86-0, Dose [Inhibitor]: 0, 0.8% IN BASAL DIET BEGINNING POST CARCINOGEN TREATMENT AND CONTINUING FOR 40 WK (STUDY DURATION: 60 WK), Route [Inhibitor]: ORAL, Species: RAT, Strain/Sex: F344/MALE, Target Tissue: Type of Lesion: PROSTATE: CARCINOMA, Dose [Carcinogen]: 50 MG/KG 1/2 WK FOR 20 WK TO RATS MAINTAINED ON ETHINYL ESTRADIOL CONTAINING DIET (0.75 PPM) FOR 1 WK CYCLED WITH ETHINY, Promoter: ETHINYL ESTRADIOL, 57-63-6) of the same molecule?
A: 5/10 (50%), 3/10 (30%), 40%, not significant

Q: And the “tumour outcome (control, treated, inhibition, significance)” value (Carcinogen: 3,2'-DIMETHYL-4-AMINOBIPHENYL, 13394-86-0, Dose [Inhibitor]: 0, 0.8% IN BASAL DIET BEGINNING POST CARCINOGEN TREATMENT AND CONTINUING FOR 40 WK (STUDY DURATION: 60 WK), Route [Inhibitor]: ORAL, Species: RAT, Strain/Sex: F344/MALE, Target Tissue: Type of Lesion: SMALL INTESTINE: ADENOMA AND ADENOCARCINOMA, Dose [Carcinogen]: 50 MG/KG 1/2 WK FOR 20 WK TO RATS MAINTAINED ON ETHINYL ESTRADIOL CONTAINING DIET (0.75 PPM) FOR 1 WK CYCLED WITH ETHINY, Promoter: ETHINYL ESTRADIOL, 57-63-6)?
A: 2/10 (20%), 2/10 (20%), 0%, not significant

Q: And the “tumour outcome (control, treated, inhibition, significance)” value (Carcinogen: 3,2'-DIMETHYL-4-AMINOBIPHENYL, 13394-86-0, Dose [Inhibitor]: 0, 0.8% IN BASAL DIET BEGINNING POST CARCINOGEN TREATMENT AND CONTINUING FOR 40 WK (STUDY DURATION: 60 WK), Route [Inhibitor]: ORAL, Species: RAT, Strain/Sex: F344/MALE, Target Tissue: Type of Lesion: SUBCUTIS: TUMOR, Dose [Carcinogen]: 50 MG/KG 1/2 WK FOR 20 WK TO RATS MAINTAINED ON ETHINYL ESTRADIOL CONTAINING DIET (0.75 PPM) FOR 1 WK CYCLED WITH ETHINY, Promoter: ETHINYL ESTRADIOL, 57-63-6)?
A: 1/10 (10%), 1/10 (10%), 0%, not significant

Q: What about the “tumour outcome (control, treated, inhibition, significance)” value (Carcinogen: 3,2'-DIMETHYL-4-AMINOBIPHENYL, 13394-86-0, Dose [Inhibitor]: 0, 0.8% IN BASAL DIET BEGINNING POST CARCINOGEN TREATMENT AND CONTINUING FOR 40 WK (STUDY DURATION: 60 WK), Route [Inhibitor]: ORAL, Species: RAT, Strain/Sex: F344/MALE, Target Tissue: Type of Lesion: ZYMBAL GLAND: ADENOMA OR CARCINOMA, Dose [Carcinogen]: 50 MG/KG 1/2 WK FOR 20 WK TO RATS MAINTAINED ON ETHINYL ESTRADIOL CONTAINING DIET (0.75 PPM) FOR 1 WK CYCLED WITH ETHINY, Promoter: ETHINYL ESTRADIOL, 57-63-6) of the same molecule?
A: 2/10 (20%), 2/10 (20%), 0%, not significant

Q: What about the “tumour outcome (control, treated, inhibition, significance)” value (Carcinogen: BENZO[A]PYRENE, 50-32-8, Dose [Inhibitor]: 10 MG IN 0.1 ML ACETONE 3/WK ADMINISTERED SIMULTANEOUSLY WITH CARCINOGEN FOR DU RATION OF STUDY (STUDY DURATION: 368 D), Route [Inhibitor]: DERMAL, Species: MOUSE, Strain/Sex: ICR/FEMALE, Target Tissue: Type of Lesion: SKIN: PAPILLOMA, Dose [Carcinogen]: 5 UG IN 0.1 ML ACETONE THAT ALSO CONTAINED AGENT 3/WK FOR DURATION OF STUDY, Promoter: NONE USED) of the same molecule?
A: 14/50 (28%), 5/50 (10%), 64%, not calculated

Q: And the “tumour outcome (control, treated, inhibition, significance)” value (Carcinogen: BENZO[A]PYRENE, 50-32-8, Dose [Inhibitor]: 10 MG IN 0.1 ML ACETONE 3/WK ADMINISTERED SIMULTANEOUSLY WITH CARCINOGEN FOR DU RATION OF STUDY (STUDY DURATION: 368 D), Route [Inhibitor]: DERMAL, Species: MOUSE, Strain/Sex: ICR/FEMALE, Target Tissue: Type of Lesion: SKIN: SQUAMOUS CARCINOMA, Dose [Carcinogen]: 5 UG IN 0.1 ML ACETONE THAT ALSO CONTAINED AGENT 3/WK FOR DURATION OF STUDY, Promoter: NONE USED)?
A: 10/50 (20%), 2/50 (4%), 80%, not calculated

Q: What about the “tumour outcome (control, treated, inhibition, significance)” value (Carcinogen: N-BIS(2-HYDROXYPROPYL)NITROSAMINE, 53609-64-6, Dose [Inhibitor]: 0, 0.8% IN DIET FOR 30 WK BEGINNING POST CARCINOGEN (STUDY DURATION: 32 WK), Route [Inhibitor]: ORAL, Species: RAT, Strain/Sex: F344/MALE, Target Tissue: Type of Lesion: LUNG: CARCINOMA, Dose [Carcinogen]: 0.1% IN DRINKING WATER FOR 2 WK, Promoter: NONE USED) of the same molecule?
A: 45%, 40%, 11%, not calculated

Q: And the “tumour outcome (control, treated, inhibition, significance)” value (Carcinogen: N-BIS(2-HYDROXYPROPYL)NITROSAMINE, 53609-64-6, Dose [Inhibitor]: 0, 0.8% IN DIET FOR 30 WK BEGINNING POST CARCINOGEN TREATMENT (STUDY DURATION: 32 WK), Route [Inhibitor]: ORAL, Species: RAT, Strain/Sex: F344/MALE, Target Tissue: Type of Lesion: BLADDER: ADENOMA, Dose [Carcinogen]: 0.1% IN DRINKING WATER FOR 2 WK, Promoter: NONE USED)?
A: 5%, 10%, -100%, not calculated

Q: What about the “tumour outcome (control, treated, inhibition, significance)” value (Carcinogen: N-BIS(2-HYDROXYPROPYL)NITROSAMINE, 53609-64-6, Dose [Inhibitor]: 0, 0.8% IN DIET FOR 30 WK BEGINNING POST CARCINOGEN TREATMENT (STUDY DURATION: 32 WK), Route [Inhibitor]: ORAL, Species: RAT, Strain/Sex: F344/MALE, Target Tissue: Type of Lesion: KIDNEY: TUMOR, Dose [Carcinogen]: 0.1% IN DRINKING WATER FOR 2 WK, Promoter: NONE USED) of the same molecule?
A: 10%, 35%, -250%, not calculated
